Reference: patent publication US20150203512
Read-outs that look alike come from different tables or passages of the source.

Settings: rcm bond, Zhan-1B, dichloromethane, 25.0 °C

CN1CC=Cc2cc(F)ccc2CNC(=O)c2nc3n(c(=O)c2OS(C)(=O)=O)CCCCC3N(C)C(=O)C1=O (centres unmarked)
ring closure, yield of all isomers (from C=CCN(C)C(=O)C(=O)N(C)C1CCCCn2c1nc(C(=O)NCc1ccc(F)cc1C=C)c(OS(C)(=O)=O)c2=O, 2.6 mM, 60.0 h): 67%

CC[C@H]1COC[C@@H]2c3nc(c(O)c(=O)n31)C(=O)NCc1ccc(F)cc1N(C)CCC=CC(=O)N2C
ring closure, yield of all isomers (from C=CCCN(C)c1cc(F)ccc1CNC(=O)c1nc2n(c(=O)c1O)[C@@H](CC)COC[C@H]2N(C)C(=O)C=C, 2.4 mM, 15.0 h): 62%

CN1C(=O)CCCC=Cc2cc(F)ccc2CNC(=O)c2nc3n(c(=O)c2OS(C)(=O)=O)CCCCC31 (centres unmarked)
ring closure, yield of all isomers (from C=CCCCC(=O)N(C)C1CCCCn2c1nc(C(=O)NCc1ccc(F)cc1C=C)c(OS(C)(=O)=O)c2=O, 0.9 mM, 24.0 h): 85%

CC[C@H]1COC[C@@H]2c3nc(c(O)c(=O)n31)C(=O)NCc1ccc(F)cc1OCCC=CC(=O)N2C
ring closure, yield of all isomers (from C=CCCOc1cc(F)ccc1CNC(=O)c1nc2n(c(=O)c1O)[C@@H](CC)COC[C@H]2N(C)C(=O)C=C, 3.88 mM, 15.0 h): 51%

CN1C(=O)OCCCC=Cc2cc(F)ccc2CNC(=O)c2nc3n(c(=O)c2OS(C)(=O)=O)CCCCC31 (centres unmarked)
ring closure, yield of all isomers (from C=CCCCOC(=O)N(C)C1CCCCn2c1nc(C(=O)NCc1ccc(F)cc1C=C)c(OS(C)(=O)=O)c2=O, 4.25 mM, 15.0 h): 97%

CN1C(=O)C=CCCNc2cc(F)ccc2CNC(=O)c2nc3n(c(=O)c2O)CCCCC31 (centres unmarked)
ring closure, yield of all isomers (from C=CCCNc1cc(F)ccc1CNC(=O)c1nc2n(c(=O)c1O)CCCCC2N(C)C(=O)C=C, 2.0 mM, 20.0 h): 53%

CN1C(=O)C=CCCOc2cc(F)ccc2CNC(=O)c2nc3n(c(=O)c2O)CCCCC31 (centres unmarked)
ring closure, yield of all isomers (from C=CCCOc1cc(F)ccc1CNC(=O)c1nc2n(c(=O)c1O)CCCCC2N(C)C(=O)C=C, 5.14 mM, 15.0 h): 51%

CN1CCC=CC(=O)N(C)C2CCCCn3c2nc(c(O)c3=O)C(=O)NCc2ccc(F)cc21 (centres unmarked)
ring closure, yield of all isomers (from C=CCCN(C)c1cc(F)ccc1CNC(=O)c1nc2n(c(=O)c1O)CCCCC2N(C)C(=O)C=C, 1.4 mM, 20.0 h): 63%
